target: T1, Met kinase (Homo sapiens, UniProt P08581); test: Met kinase inhibition, flashplate method; assay type: biochemical; details: 33P-ATP, substrate pAGLT, 3 hrs at room temperature
T1 construct: 6His (N); purchased Upstate 14-526; host or cells: Sf21 insect cells (S. frugiperda), baculovirus
Excerpt: According to the manufacturer's data (Met, active, upstate, catalogue No. 14-526), Met kinase is expressed for the purposes of protein production in insect cells (Sf21; S. frugiperda) and subsequent affinity-chromatographic purification as “N-terminal 6His-tagged” recombinant human protein in a baculovirus expression vector.
The test plates used are 96-well Flashplate^R microtitre plates from Perkin Elmer (Cat. No. SM P200). The components of the kinase reaction described below are pipetted into the assay plate. The Met kinase and the substrate poly Ala-Glu-Lys-Tyr, (pAGLT, 6:2:5:1), are incubated for 3 hrs at room temperature with radioactively labelled ^33P-ATP in the presence and absence of test substances in a total volume of 100 μl. The reaction is terminated using 150 μl of a 60 mM EDTA solution. After incubation for a further 30 min at room temperature, the supernatants are filtered off with suction, and the wells are washed three times with 200 μl of 0.9% NaCl solution each time. The measurement of the bound radioactivity is carried out by means of a scintillation measuring instrument (Topcount NXT, Perkin-Elmer).
The full value used is the inhibitor-free kinase reaction. This should be approximately in the range 6000-9000 cpm. The pharmacological zero value used is staurosporin in a final concentration of 0.1 mM. The inhibitory values (IC50) are determined using the RS1_MTS program.
Kinase reaction conditions per well: • 30 μl of assay buffer • 10 μl of substance to be tested in assay buffer with 10% of DMSO • 10 μl of ATP (final concentration 1 μM cold, 0.35 μCi of ^33P-ATP) • 50 μl of Met kinase/substrate mixture in assay buffer; • (10 ng of enzyme/well, 50 ng of pAGLT/well) • Solutions used: • Assay buffer: • 50 mM HEPES • 3 mM magnesium chloride • 3 μM sodium orthovanadate • 3 mM manganese(II) chloride • 1 mM dithiothreitol (DTT) • pH=7.5 (to be set using sodium hydroxide) • Stop solution: • 60 mM Titriplex III (EDTA) • ^33P-ATP: Perkin-Elmer; • Met kinase: Upstate, Cat. No. 14-526, Stock 1 μg/10 μl; spec. activity 954 U/mg; • Poly-Ala-Glu-Lys-Tyr, 6:2:5:1:Sigma Cat. No. P1152

T1 sequence (P08581 974-1390 limits assumed): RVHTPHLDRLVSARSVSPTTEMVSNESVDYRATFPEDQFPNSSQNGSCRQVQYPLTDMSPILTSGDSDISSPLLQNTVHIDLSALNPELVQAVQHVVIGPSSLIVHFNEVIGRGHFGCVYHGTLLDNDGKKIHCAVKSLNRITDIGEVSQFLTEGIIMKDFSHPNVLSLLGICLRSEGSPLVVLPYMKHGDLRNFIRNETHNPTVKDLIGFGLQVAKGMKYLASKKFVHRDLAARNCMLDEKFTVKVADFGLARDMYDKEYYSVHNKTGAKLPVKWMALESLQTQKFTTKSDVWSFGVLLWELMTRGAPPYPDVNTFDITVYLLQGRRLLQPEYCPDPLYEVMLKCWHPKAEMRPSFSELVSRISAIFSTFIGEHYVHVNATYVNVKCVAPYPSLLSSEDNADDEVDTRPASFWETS

`COc1ccc(C2=NN(C(=O)Cc3ccc4nsnc4c3)CC2)c(OC)c1` [Compound A1, 1-(benzo-1,2,5-thiadiazol-5-ylmethylcarbonyl)-3-(2,4-dimethoxyphenyl)-4,5-dihydro-1H-pyrazole] was tested. Which IC50 did it give?
The IC50 was 320 nM.

For `O=C(Cc1ccc2nsnc2c1)N1CCC(c2ccc(F)cc2)=N1` [Compound A2, 1-(benzo-1,2,5-thiadiazol-5-ylmethylcarbonyl)-3-(4-fluorophenyl)-4,5-dihydro-1H-pyrazole], which IC50 is on record?
The IC50 was 610 nM.

How did the IC50 turn out when `COc1ccc(C2=NN(C(=O)Cc3cccc(O)c3)CC2)c(OC)c1` [Compound A30, 1-(3-Hydroxybenzylcarbonyl)-3-(2,4-dimethoxy-phenyl)-4,5-dihydro-1H-pyrazole] was run?
Its IC50 is 990 nM.

How did the IC50 turn out when `O=C(Cc1cccc(O)c1)N1CCC(c2ccc(F)cc2)=N1` [Compound A31, 1-(3-Hydroxybenzylcarbonyl)-3-(4-fluorophenyl)-4,5-dihydro-1H-pyrazole] was run?
Its IC50 is 330 nM.

`CC(C(=O)N1CCC(c2ccc3c(c2)CNC(=O)N3)=N1)c1ccc(O)cc1` (stereo not drawn) [Compound A100, 3-(2-Oxo-3,4-dihydro-1H-quinazolin-6-yl)-1-[2-(4-hydroxyphenyl)propionyl]-4,5-dihydro-1H-pyrazole] was tested. Which IC50 did it give?
Its IC50 is 9 nM.

`O=C(Cc1ccc2[nH]cnc2c1)N1CCC(c2cc(Cl)ccc2O)=N1` [Compound A108, 1-[2-(1H-Benzimidazol-5-yl)acetyl]-3-(3-chloro-6-hydroxyphenyl)-4,5-dihydro-1H-pyrazole] was tested. Which IC50 did it give?
Its IC50 is 3 nM.

`CC(C(=O)N1CCC(c2cc(Cl)ccc2O)=N1)c1ccc(O)cc1` (stereo not drawn) [Compound A120, 3-(3-Chloro-6-hydroxyphenyl)-1-[2-(4-hydroxy-phenyl)propionyl]-4,5-dihydro-1H-pyrazole] was tested. Which IC50 did it give?
The IC50 was 3.6 nM.

Which IC50 does the source give for `CN(C)CCCOC(=O)Nc1cccc(CC(=O)N2CCC(c3cc(Cl)ccc3Cl)=N2)c1` [Compound A153, 3-Dimethylaminopropyl (3-{2-[3-(2,5-dichlorophenyl)-4,5-dihydro-1H-pyrazol-1-yl]-2-oxoethyl}phenyl)carbamate] here?
The IC50 was 8 nM.

How did the IC50 turn out when `O=C(Nc1cccc(CC(=O)N2CCC(c3cc(Cl)ccc3Cl)=N2)c1)OCCCN1CCOCC1` [Compound A154, 3-morpholin-4-ylpropyl (3-{2-[3-(2,5-dichlorophenyl)-4,5-dihydro-1H-pyrazol-1-yl]-2-oxoethyl}phenyl)carbamate] was run?
The IC50 was 2.5 nM.

From US7875644B2, “1-acyldihydropyrazole derivatives” (Merck Patent GmbH, priority 2005, dated 2011)
